# Measurements from patent publication US6861443B2, “Positive modulators of nicotinic receptors” (Astra AB, priority 1998, dated 2005).
# Like-named read-outs stand apart in the source and are kept apart here.
# How the values were obtained:
# nAChR α7 = nAChR α7 (Homo sapiens, UniProt P36544); details: FIG. 6
# Description: To screen for α7 modulatory activity, the 96 well plate is placed in a fluorescence imaging plate reader (FLIPR) and test compounds along with an α7 agonist are applied simultaneously to all wells. Receptor activation is measured by calcium influx into cells which is quantified by the increase in fluorescence intensity of each well, recorded simultaneously by the FLIPR. A modulatory effect is determined by the increase in fluorescence over that of agonist alone. Similarly, to test for nAChR α7 agonist activity, test compounds along with an α7 modulator are applied simultaneously to all wells. Receptor activation is measured by calcium influx into cells which is quantified by the increase in fluorescence intensity of each well, recorded simultaneously by the FLIPR. An agonist effect is determined by the increase in fluorescence over that of modulator alone.
# Effect of nAChR α7 modulator on agonist activity was measured by Ca^2+ flux through nAChR α7 expressed in HEK-293 cells. The nicotinic agonist (−)-Spiro[1-Azabicyclo[2.2.2.]Octane-3,5*-Oxazolidine]-2*-One, was used.
# α7-nicotinic receptor = assay: Two-electrode voltage-clamp current recording from Xenopus oocytes expressing α7-nicotinic receptors; assay type: cell-based, human, rat and chick
# Description: (a) Xenopus Oocyte Current Recording
# The Xenopus oocyte has provided a powerful means of assessing the function of proteins thought to be subunits of ligand-gated ion-channels.
# Consequently, one convenient technique to assess the enhancement of nicotinic efficacy is two-electrode voltage-clamp recording from Xenopus oocytes expressing α7-nicotinic receptors from cRNA.
# Oocytes were removed to OR2 solution (82 mM NaCl, 2.5 mM KCl, 5 mM HEPES, 1.5 mM NaH2PO4, 1 mM MgCl2, 0.1 mM EDTA; pH 7.4). The oocytes were defolliculated by incubation in 25 ml OR2 containing 0.2% collagenase 1A (Sigma) two times for 60 min on a platform vibrating at 1 Hz and stored in Leibovitz's L-15 medium (50 μg/ml gentomycin, 10 Units/ml penicillin, and 10 μg/ml streptomycin). Approximately 50 ng of cRNA was injected in each oocyte the following day. cRNA was synthesised from cDNA using Message Machine (purchased from Abion).
# The external recording solution consisted of 90 mM NaCl, 1 mM KCl, 1 mM MgCl2, 1 mM BaCl2, 5 mM HEPES; pH 7.4. […] Oocytes were impaled with two electrodes of 1-2 MΩ tip resistance when filled with 3M KCl. Recordings were begun when membrane potential became stable at potentials negative to −20 mV (resting membrane potentials are less negative when Ba^++ replaces Ca^++ in bathing solutions). Membrane potential was clamped at −80 mV.
# Current amplitude was measured from baseline to peak. EC50 values, maximal effect, and Hill slopes were estimated by fitting the data to the logistic equation using GraphPad Prism (GraphPad Software, Inc., San Diego, Calif.).
# Increases in agonist efficacy elicited by a positive modulator can be calculated in two ways: • (1) As percent potentiation of current amplitude which is defined as 100(Im−Ic)/Ic where Im is current amplitude in the presence of modulator and Ic is current in the absence of modulator (FIG. 1). • (2) As percent potentiation of “area under curve” of an agonist trace. Area under the curve is a common representation of the total ion flux through the channel (FIG. 2).
# [1] = target: mouse muscle-type nicotinic receptors (Mus musculus, UniProt P02716+P04756+P09690); assay: Efficacy enhancement on other nicotinic receptors; assay type: cell-based
# 5-HT3 receptors = details: unpublished results / in press; cited from earlier work
# nAChR α7, sequence (P36544 23-502): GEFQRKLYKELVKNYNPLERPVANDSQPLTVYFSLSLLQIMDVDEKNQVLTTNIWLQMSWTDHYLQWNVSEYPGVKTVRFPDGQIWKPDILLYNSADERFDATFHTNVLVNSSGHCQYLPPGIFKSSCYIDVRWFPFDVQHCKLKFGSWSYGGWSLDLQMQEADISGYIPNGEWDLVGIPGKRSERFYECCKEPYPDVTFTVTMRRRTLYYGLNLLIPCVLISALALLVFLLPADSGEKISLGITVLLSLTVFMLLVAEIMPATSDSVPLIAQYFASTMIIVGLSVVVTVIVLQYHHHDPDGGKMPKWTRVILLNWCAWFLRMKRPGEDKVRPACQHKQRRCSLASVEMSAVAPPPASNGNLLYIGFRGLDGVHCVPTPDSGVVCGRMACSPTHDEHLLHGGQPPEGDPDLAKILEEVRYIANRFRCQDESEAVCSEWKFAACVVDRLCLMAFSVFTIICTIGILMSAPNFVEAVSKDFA
# mouse muscle-type nicotinic receptors, sequence (P04756 21-457): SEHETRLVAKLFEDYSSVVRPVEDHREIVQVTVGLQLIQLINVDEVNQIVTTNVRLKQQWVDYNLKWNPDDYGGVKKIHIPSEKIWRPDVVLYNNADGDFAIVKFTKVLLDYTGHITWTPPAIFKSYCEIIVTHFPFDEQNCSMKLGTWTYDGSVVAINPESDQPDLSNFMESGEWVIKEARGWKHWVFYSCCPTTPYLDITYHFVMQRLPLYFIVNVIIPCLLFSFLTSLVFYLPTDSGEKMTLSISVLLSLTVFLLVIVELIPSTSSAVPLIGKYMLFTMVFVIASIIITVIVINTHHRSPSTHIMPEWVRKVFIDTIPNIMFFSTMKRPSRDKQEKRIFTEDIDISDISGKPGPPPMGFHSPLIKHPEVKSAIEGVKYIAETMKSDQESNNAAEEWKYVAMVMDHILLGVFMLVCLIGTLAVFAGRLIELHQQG
# mouse muscle-type nicotinic receptors, sequence (P09690 24-501): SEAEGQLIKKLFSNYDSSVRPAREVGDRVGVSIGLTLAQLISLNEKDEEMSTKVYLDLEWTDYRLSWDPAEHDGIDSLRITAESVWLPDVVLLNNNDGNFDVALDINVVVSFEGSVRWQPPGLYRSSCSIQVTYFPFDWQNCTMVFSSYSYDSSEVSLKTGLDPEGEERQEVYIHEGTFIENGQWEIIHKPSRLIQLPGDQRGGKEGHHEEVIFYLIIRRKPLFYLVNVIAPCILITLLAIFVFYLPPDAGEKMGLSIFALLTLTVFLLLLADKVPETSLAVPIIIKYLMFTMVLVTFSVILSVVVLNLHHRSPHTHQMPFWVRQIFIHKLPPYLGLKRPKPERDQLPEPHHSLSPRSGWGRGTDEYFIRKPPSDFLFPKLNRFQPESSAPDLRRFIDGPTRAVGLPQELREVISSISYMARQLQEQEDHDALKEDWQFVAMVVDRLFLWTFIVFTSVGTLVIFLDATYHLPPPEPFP
# mouse muscle-type nicotinic receptors, sequence (P02716 25-520): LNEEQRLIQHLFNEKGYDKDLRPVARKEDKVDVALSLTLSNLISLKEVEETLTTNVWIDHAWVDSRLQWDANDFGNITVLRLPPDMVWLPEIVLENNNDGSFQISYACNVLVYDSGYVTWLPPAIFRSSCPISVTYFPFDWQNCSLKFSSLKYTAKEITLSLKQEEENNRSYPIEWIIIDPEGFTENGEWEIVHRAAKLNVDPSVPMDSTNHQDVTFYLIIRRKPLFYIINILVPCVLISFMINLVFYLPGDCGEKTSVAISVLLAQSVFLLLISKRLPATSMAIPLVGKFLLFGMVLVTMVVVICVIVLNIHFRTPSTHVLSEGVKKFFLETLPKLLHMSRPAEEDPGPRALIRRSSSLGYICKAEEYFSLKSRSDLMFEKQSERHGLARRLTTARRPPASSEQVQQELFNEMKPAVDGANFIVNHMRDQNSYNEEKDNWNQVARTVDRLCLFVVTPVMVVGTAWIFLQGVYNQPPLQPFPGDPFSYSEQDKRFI
smiles,measurement,setting,value
"O=C1NCC2(CN3CCC2CC3)O1 (single isomer, unassigned; (-))","agonist activity as Ca2+ flux signal, agonist alone",nAChR α7; no modulator,No discernible signal
same,"agonist activity as Ca2+ flux signal, agonist together with modulator",nAChR α7; with nAChR α7 modulator,significant increase in agonist activity
Oc1ccc2[nH]ccc2c1 [5-hydroxyindole],increase in area under the curve,"α7-nicotinic receptor; 0.5 mM 5-OHi, saturating agonist (3 mM ACh), 1 second agonist application, FIG. 4",~400%
same,increase of maximal response to ACh (maximum amplitude),"α7-nicotinic receptor; 5-hydroxyindole 500 μM against a range of ACh concentrations, FIG. 3",2 fold
same,increase in efficacy of agonists at nicotinic receptors,α7-nicotinic receptor; general statement,greater than 2 fold
same,increase in efficacy of various nicotinic agonists afforded by 5-hydroxyindole,"α7-nicotinic receptor; modulator 1 mM 5-OHi, ACh 3 mM, AR-R 17779 100 μM, FIG. 5",seen with all nicotinic agonists tested
same,current induced when applied by itself,"α7-nicotinic receptor; no agonist, oocytes injected with cRNA for α7 nicotinic receptors",did not induce current
same,increase in efficacy on other nicotinic receptors,[1],not seen on any other nicotinic receptors
NCC(=O)O [Glycine],effect on 5-HT3 receptors,5-HT3 receptors,no effect
NS(=O)(=O)c1cc2c(cc1Cl)NC(C1CC3C=CC1C3)NS2(=O)=O (stereo not drawn) [cyclothiazide],effect on 5-HT3 receptors,5-HT3 receptors,block 5-HT3 receptors
NCCc1c[nH]c2ccc(O)cc12 [serotonin],positive modulation on ACh activity (efficacy enhancing activity),α7-nicotinic receptor,did not increase efficacy
same,positive modulation on ACh activity (efficacy enhancing activity),α7-nicotinic receptor; listed as 5-HT,unable to reproduce the finding that 5-HT increases activity
